Tests used:
Rattus norvegicus [1] = assay: Antiseizure activity in PTZ-induced male Sprague-Dawley rat acute seizure model assessed as increase in latency to tonic seizures at 23.2 micromol/kg, po pretreated for 2 hrs followed by PTZ addition and measured after 60 mins (reference value: 77 +/- 13.4 sec); format: functional; details: dose 23.2 µmol/kg, time 180 min, 3 h
[2] = Genotoxicity in Salmonella typhimurium TA100 assessed as induction of reverse mutation in presence of rat liver S9 fraction; format: toxicity, subcellular; details: salmonella enterica subsp. enterica serovar typhimurium
[3] = Genotoxicity in Salmonella typhimurium TA100 assessed as induction of reverse mutation in absence of rat liver S9 fraction; format: toxicity; details: salmonella enterica subsp. enterica serovar typhimurium
Rattus norvegicus [4] = assay: Antiseizure activity in PTZ-induced male Sprague-Dawley rat acute seizure model assessed as increase in latency to tonic seizures at 12.2 micromol/kg, po pretreated for 1 hr followed by PTZ addition and measured after 60 mins (reference value: 77 +/- 13.4 sec); format: functional; details: dose 12.2 µmol/kg, time 120 min, 2 h
[5] = Toxicity in male Sprague-Dawley rat assessed as loss of righting reflex at 7.8 micromol/kg, ip measured within 4 hrs; format: organism-based; details: in vivo, dose 7.8 µmol/kg
[6] = Toxicity in male Sprague-Dawley rat assessed as risk of consciousness loss by measuring time for first loss of righting reflex at 12.2 micromol/kg, ip measured within 4 hrs; format: organism-based; details: in vivo, dose 12.2 µmol/kg

Row | Structure (SMILES) | Time (Rattus norvegicus [1]) | Activity [2] | Activity [3] | Time (Rattus norvegicus [4]) | Activity [5] | Time [6]
1 | C[C@@]1(O)CC[C@H]2[C@H](CC[C@@H]3[C@@H]2CC[C@]2(C)[C@@H](C(=O)Cn4cnn(-c5cc(F)nc(F)c5)c4=O)CC[C@@H]32)C1 | 3600 s | Non-Toxic | Non-Toxic | – | – | –
2 | C[C@@]1(O)CC[C@H]2[C@H](CC[C@@H]3[C@@H]2CC[C@]2(C)[C@@H](C(=O)Cn4cc(C#N)cn4)CC[C@@H]32)C1 [ZURANOLONE] | – | – | – | 1639 s | Non-Toxic | 33 min

— ChEMBL document CHEMBL5608182, “Synthesis and evaluation of neuroactive steroids with novel pharmacophore at C-21 let identify a compound with advantageous PK profile and higher EC50 and Emax as PAM on GABAA receptor” (Eur J Med Chem, 2024)
